The values that follow come from PubChem BioAssay AID330 (DTP/NCI, 2004).

Several values for one entry are separate records, joined by “and”; a condition that tells them apart may be missing. Identical values can stand only once. Toxic doses and inconclusive results are not listed.

The experiment relates to P388 leukemia ip, CD2F1 mice, survival T/C. As to the kind of experiment: NCI In Vivo Anticancer Drug Screen. Data for tumor model P388 Leukemia (intraperitoneal) in CD2F1 (CDF1) mice. Conditions: endpoint: median survival time, higher = longer survival. In short, it runs like this:
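Mice carrying the transplanted tumor received test compound or vehicle. Survival was recorded in each group, and the value is the treated-group measurement divided by that of the vehicle-treated control group.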

Where [1] appears, read: dose: 100.0 mg/kg/injection, schedule: Q04DX002 (ip), vehicle: Klucel (hydroxypropylcellulose) (HPC).
Where [2] appears, read: dose: 200.0 mg/kg/injection, schedule: Q04DX002 (ip), vehicle: Klucel (hydroxypropylcellulose) (HPC).
Where [3] appears, read: dose: 400.0 mg/kg/injection, schedule: Q04DX002 (ip), vehicle: Klucel (hydroxypropylcellulose) (HPC).
Where [4] appears, read: dose: 50.0 mg/kg/injection, schedule: Q01DX005 (ip), vehicle: saline with Tween-80.
[5] abbreviates: dose: 100.0 mg/kg/injection, schedule: Q01DX005 (ip), vehicle: saline with Tween-80.
Setting [6] is: dose: 200.0 mg/kg/injection, schedule: Q01DX005 (ip), vehicle: saline with Tween-80.
Setting [7] is: dose: 60.0 mg/kg/injection, schedule: Q01DX005 (ip), vehicle: saline with Tween-80.
Where [8] appears, read: dose: 120.0 mg/kg/injection, schedule: Q01DX005 (ip), vehicle: saline with Tween-80.
Setting [9] is: dose: 240.0 mg/kg/injection, schedule: Q01DX005 (ip), vehicle: saline with Tween-80.
[10] abbreviates: dose: 50.0 mg/kg/injection, schedule: Q01DX005 (ip), vehicle: Klucel (hydroxypropylcellulose) (HPC).
Setting [11] is: dose: 100.0 mg/kg/injection, schedule: Q01DX005 (ip), vehicle: Klucel (hydroxypropylcellulose) (HPC).
[12] abbreviates: dose: 50.0 mg/kg/injection, schedule: Q01DX009 (ip), vehicle: Klucel (hydroxypropylcellulose) (HPC).
Setting [13] is: dose: 100.0 mg/kg/injection, schedule: Q01DX009 (ip), vehicle: Klucel (hydroxypropylcellulose) (HPC).
Setting [14] is: dose: 200.0 mg/kg/injection, schedule: Q01DX009 (ip), vehicle: Klucel (hydroxypropylcellulose) (HPC).
Setting [15] is: dose: 50.0 mg/kg/injection, schedule: Q01DX009 (ip), vehicle: saline.
Where [16] appears, read: dose: 100.0 mg/kg/injection, schedule: Q01DX009 (ip), vehicle: saline.
Where [17] appears, read: dose: 200.0 mg/kg/injection, schedule: Q01DX009 (ip), vehicle: saline.
Where [18] appears, read: dose: 6.25 mg/kg/injection, schedule: Q01DX009 (ip), vehicle: saline.
[19] abbreviates: dose: 12.5 mg/kg/injection, schedule: Q01DX009 (ip), vehicle: saline.
[20] abbreviates: dose: 100.0 mg/kg/injection, schedule: Q01DX001 (ip), vehicle: saline with Tween-80.
Where [21] appears, read: dose: 200.0 mg/kg/injection, schedule: Q01DX001 (ip), vehicle: saline with Tween-80.
[22] abbreviates: dose: 12.5 mg/kg/injection, schedule: Q01DX009 (ip), vehicle: saline with Tween-80.
[23] abbreviates: dose: 25.0 mg/kg/injection, schedule: Q01DX009 (ip), vehicle: saline with Tween-80.
Where [24] appears, read: dose: 50.0 mg/kg/injection, schedule: Q01DX009 (ip), vehicle: saline with Tween-80.

Regarding `CC(C)(C)c1cc(C(C)(C)O)c2c(c1)C(C)(C)OS2(=O)=O`, the T/C under setting [1] was 96 % of control, the T/C under setting [2] was 87 % of control and the T/C under setting [3] was 97 % of control.

Consider `Clc1ccccc1C(Nc1cnccn1)Nc1cnccn1`, for which the T/C was 120 % of control under setting [4]; 114 % of control under setting [5]; 110 % of control under setting [6]; 121 % of control (dose: 400.0 mg/kg/injection, schedule: Q01DX005 (ip), vehicle: saline with Tween-80).

Turning to `CC1=[N+]([O-])[N+]([O-])=C(C)C1=O`, the T/C was 91 % of control (dose: 6.25 mg/kg/injection, schedule: Q01DX009 (ip), vehicle: Klucel (hydroxypropylcellulose) (HPC)) and 100 % of control (dose: 12.5 mg/kg/injection, schedule: Q01DX009 (ip), vehicle: Klucel (hydroxypropylcellulose) (HPC)).

`NC(=O)C1C=CN(Cc2ccccc2)C=C1`: the T/C by setting is: (dose: 30.0 mg/kg/injection, schedule: Q01DX005 (ip), vehicle: saline with Tween-80) 105 % of control and 106 % of control; under setting [7], 108 % of control and 111 % of control and 123 % of control; under setting [8], 117 % of control and 118 % of control; under setting [9], 108 % of control and 123 % of control.

Regarding `CC(C)C1SCC(=O)N1c1nncs1` (stereo not drawn), the T/C is 103 % of control under setting [7], 112 % of control under setting [8] and 107 % of control under setting [9].

In the case of `CC(C)COP(=O)(OCC(C)C)OCC(C)C.CC(C)COP(=O)(OCC(C)C)OCC(C)C.CC(C)COP(=O)(OCC(C)C)OCC(C)C.CC(C)COP(=O)(OCC(C)C)OCC(C)C.O.O.[Co+2].[O-][Cl+3]([O-])([O-])O`, the T/C by setting is: (dose: 25.0 mg/kg/injection, schedule: Q04DX003 (ip), vehicle: saline with Tween-80) 94 % of control; (dose: 50.0 mg/kg/injection, schedule: Q04DX003 (ip), vehicle: saline with Tween-80) 99 % of control; (dose: 100.0 mg/kg/injection, schedule: Q04DX003 (ip), vehicle: saline with Tween-80) 114 % of control and 116 % of control.

Regarding `O=C(O)/C(Cl)=C(\Cl)C(=O)Nc1ccccc1C(F)(F)F`, the T/C was 97 % of control under setting [4] and 103 % of control under setting [5].

On to `CCCCNC(=O)c1cc(NC(=O)c2ccc(C(=O)Nc3cc(C(=O)NCCCC)cc(C4N=CCN4)c3)cc2)cc(C2=NCCN2)c1` (stereo not drawn), for which the T/C runs as follows: under setting [4], 94 % of control; under setting [5], 95 % of control.

On to `CC[C@]1(O)CC(OC2CC(N(C)C)C(O)C(C)O2)c2c(cc3c(c2O)C(=O)c2c(O)cccc2C3=O)[C@@H]1C(=O)OC` (stereo partly drawn), for which the T/C is 95 % of control under setting [10]; 96 % of control under setting [11]; 97 % of control (dose: 200.0 mg/kg/injection, schedule: Q01DX005 (ip), vehicle: Klucel (hydroxypropylcellulose) (HPC)).

As for `O=C(CCCCC(=O)NO)NO`, the T/C by setting is: under setting [12], 102 % of control; under setting [13], 105 % of control; under setting [14], 105 % of control.

With `Fc1c(F)c(F)c(SN=S=Nc2ccccc2)c(F)c1F`, the T/C reads like this: under setting [10], 106 % of control; under setting [11], 108 % of control.

On to `NC(=Nc1ccccc1)c1ccccn1`, for which the T/C is 95 % of control under setting [15], 94 % of control under setting [16] and 95 % of control under setting [17].

As to `BrCC[N+]12CC[N+](CCBr)(CC1)C2`, the T/C under setting [18] was 114 % of control; the T/C under setting [19] was 116 % of control; the T/C under setting [15] is 203 % of control and 110 % of control and 121 % of control; the T/C (dose: 50.0 mg/kg/injection, schedule: Q04DX003 (ip), vehicle: water) is 101 % of control; the T/C under setting [16] is 202 % of control and 115 % of control and 118 % of control; the T/C (dose: 100.0 mg/kg/injection, schedule: Q04DX003 (ip), vehicle: water) was 108 % of control. For the same compound, the T/C under setting [17] is 114 % of control and the T/C (dose: 400.0 mg/kg/injection, schedule: Q04DX003 (ip), vehicle: water) was 173 % of control.

On to `c1ccc2cc(OCC(COc3ccc4ccccc4c3)(COc3ccc4ccccc4c3)COc3ccc4ccccc4c3)ccc2c1`, for which the T/C (dose: 7.5 mg/kg/injection, schedule: Q01DX009 (ip), vehicle: saline with Tween-80) was 89 % of control.

Regarding `O=S(=O)(c1cnccc1N1CCN(CCCl)CC1)N1CCCCC1`, the T/C is 98 % of control and 100 % of control under setting [18]; 100 % of control and 104 % of control and 105 % of control under setting [19]; 100 % of control and 108 % of control and 109 % of control (dose: 25.0 mg/kg/injection, schedule: Q01DX009 (ip), vehicle: saline).

`COC(c1ccccc1)C(Br)c1ccccc1` (stereo not drawn): the T/C is, setting by setting: under setting [20], 104 % of control; under setting [21], 95 % of control; (dose: 400.0 mg/kg/injection, schedule: Q01DX001 (ip), vehicle: saline with Tween-80) 104 % of control.

As to `ClC(Cl)=C(Cl)Cl`, the T/C is 102 % of control and 107 % of control under setting [22]; 100 % of control and 109 % of control (dose: 25.0 mg/kg/injection, schedule: Q01DX009 (ip), vehicle: Klucel (hydroxypropylcellulose) (HPC)); 107 % of control and 114 % of control under setting [23]; 98 % of control and 103 % of control under setting [12]; 105 % of control and 112 % of control under setting [24]; 100 % of control and 107 % of control under setting [13]. The T/C is, setting by setting: (dose: 100.0 mg/kg/injection, schedule: Q01DX009 (ip), vehicle: saline with Tween-80) 108 % of control and 112 % of control; under setting [14], 100 % of control; (dose: 200.0 mg/kg/injection, schedule: Q01DX009 (ip), vehicle: saline with Tween-80) 107 % of control and 110 % of control; (dose: 300.0 mg/kg/injection, schedule: Q01DX009 (ip), vehicle: Klucel (hydroxypropylcellulose) (HPC)) 104 % of control and 106 % of control.

With `NC(=Nc1ccc(S(=O)(=O)Nc2cnc3ccccc3n2)cc1)/N=C(/N)Nc1ccc(Br)cc1`, the T/C is 99 % of control under setting [4], 100 % of control under setting [5] and 99 % of control under setting [6].

As to `NC(=O)C(CCc1nc2ccccc2[nH]1)NS(=O)(=O)c1ccccc1` (stereo not drawn), the T/C under setting [12] was 102 % of control, the T/C under setting [13] was 101 % of control and the T/C under setting [14] was 102 % of control.

With `Nc1ccn(COC(CO)CO)c(=O)n1`, the T/C (dose: 100.0 mg/kg/injection, schedule: Q04DX002 (ip), vehicle: saline) was 97 % of control; the T/C (dose: 200.0 mg/kg/injection, schedule: Q04DX002 (ip), vehicle: saline) was 98 % of control; the T/C (dose: 400.0 mg/kg/injection, schedule: Q04DX002 (ip), vehicle: saline) is 103 % of control.

Consider `COC1=CC(C)(C)C(=O)S1`, for which the T/C was 100 % of control (dose: 25.0 mg/kg/injection, schedule: Q04DX002 (ip), vehicle: saline with Tween-80); 96 % of control (dose: 50.0 mg/kg/injection, schedule: Q04DX002 (ip), vehicle: saline with Tween-80); 100 % of control (dose: 100.0 mg/kg/injection, schedule: Q04DX002 (ip), vehicle: saline with Tween-80).

For the compound `O/N=C\c1ccccc1P(c1ccccc1/C=N\O)c1ccccc1/C=N\O`, the T/C reads like this: under setting [20], 87 % of control; under setting [21], 89 % of control.

For `O=C1N/C(=N/O)CC(NO)N1` (stereo not drawn), the T/C reads like this: under setting [1], 97 % of control; under setting [2], 100 % of control; under setting [3], 102 % of control.

With `CC(Br)C(=O)c1ccc2cc(Br)c3ccccc3c2c1` (stereo not drawn), the T/C is, setting by setting: under setting [22], 100 % of control; under setting [23], 106 % of control; under setting [24], 116 % of control.

For `O=C1Cc2ccccc2N1C(=O)c1ccc(Br)cc1`, the T/C is 94 % of control (dose: 100.0 mg/kg/injection, schedule: Q01DX001 (ip), vehicle: Klucel (hydroxypropylcellulose) (HPC)) and 90 % of control (dose: 200.0 mg/kg/injection, schedule: Q01DX001 (ip), vehicle: Klucel (hydroxypropylcellulose) (HPC)).

Consider `COc1ccc(C2C3=C(CC(C)(C)CC3=O)Oc3cc4c(cc32)OCO4)cc1` (stereo not drawn), for which the T/C by setting is: under setting [7], 93 % of control; under setting [8], 96 % of control.
